Where two headings read alike, the source gives them in different places.
Tests used:
[1] = test system: OSM-induced pSTAT3 in T47D human breast cancer cells; assay: pSTAT3 ELISA in T47D cells treated with OSM ± SMI; type: cell-based; conditions: for IC50: Homo sapiens
Method: (§1) To test the effect of SMIs in vitro, each SMI was incubated with OSM for a period of 1 h at 37 °C, and T47D and MDA-MB-231 human breast cancer cell lines were subsequently treated with OSM (10 ng/mL) and/or SMI-10 (10 μM) analogs for 30 min and measured for pSTAT3 levels via ELISA. The results of these assays are presented graphically in Figure and, for T47D cells, in Table as a percentage of reduction from +OSM alone. For phospho-STAT3 (pSTAT3) ELISAs, T47D MDA-MB-231, and MCF-7 cells were seeded in 12- or 24-well plates at 70–75% confluency and allowed to adhere overnight, after which cells were serum-starved with serum-free RPMI-1640 for 4 h. SMIs (10 μM in DMSO or serially diluted to specified concentrations from a 100 mM stock in DMSO) and human recombinant OSM (10 ng/mL; PeproTech; #300–10T-10UG) were incubated in serum-free RPMI-1640 medium for 1 h. After incubation, the SMI-10 analogs or SMI-10B13 and OSM were added to the serum-starved cells for 30 min. Immediately afterward, the cells were lysed using 1x PathScan Sandwich ELISA Lysis Buffer (Cell Signaling Technology; #7018S), collected, and stored at −20 °C. Lysates were analyzed for pSTAT3 levels using either the PathScan Phospho-STAT3 (Tyr705) Sandwich ELISA Antibody Pair kit (Cell Signaling Technology; #7146) or Human/Mouse Phospho-STAT3 (Y705) DuoSet IC ELISA (R&D Systems; DYC4607B), according to manufacture’s protocol. pSTAT3 expression was measured with absorbance at 450 nm and quantified by comparison relative to OSM-induced pSTAT3 levels. To calculate an IC50 for SMI-10B13, a standard curve was generated as described in the DuoSet IC ELISA datasheet to determine the concentration of pSTAT3.

[2] = test system: OSM-mediated STAT3 phosphorylation in MCF-7 cells; assay: pSTAT3 ELISA in MCF-7 cells treated with OSM ± SMI; type: cell-based; conditions: Homo sapiens, MCF7
Method: as §1, with “For” for “To test the effect of SMIs in vitro, each SMI was incubated with OSM for a period of 1 h at 37 °C, and T47D and MDA-MB-231 human breast cancer cell lines were subsequently treated with OSM (10 ng/mL) and/or SMI-10 (10 μM) analogs for 30 min and measured for pSTAT3 levels via ELISA. The results of these assays are presented graphically in Figure and, for T47D cells, in Table as a percentage of reduction from +OSM alone. For”

[3] = test system: MCF-7-luc-OSM-overexpressing cells; type: in vivo
Method: To evaluate SMI-10B13 on OSM inhibition in vivo, athymic nu/nu mice were randomized and given equal dose of either vehicle or SMI-10B13 (50 mg/kg) 12 h before tumor cell injection. Mice were then injected with 2 × 10^6 cells in the fourth mammary fat pad and monitored for tumor growth over 40 days, receiving either vehicle or SMI-10B13 treatment 3x weekly and evaluated for tumor growth until the end point of the experiment (Figure A).
Seven- to eight-week-old athymic nu/nu mice were purchased from Jackson Laboratory and quarantined for 6 days. Twelve hours before tumor cell injection, the mice were grouped and injected intraperitoneally (i.p.) with 50 mg/kg of SMI-10B13 or vehicle (10% DMSO, 10% EtOH, 20% Cremophor EL, 60% propylene glycol; diluted in half with PBS). The following morning, MCF-7-Luc-flOSM cells (described above) were grown to 70–75% confluency, and the cells were concentrated to 4.0 × 10^7 cells/mL in PBS containing serum-free RPMI-1640. A 50 μL cell suspension was injected into the fourth mammary fat pad, resulting in 2.0 × 10^6 cells/injection. Mice were then injected (via i.p.) 3x weekly with SMI-10B13 or the vehicle control. Mice were also injected 1x weekly with D-luciferin (PerkinElmer; 122799–5) for bioluminescence detection for a period of 40–50 days, and 3x weekly for tumor growth via caliper measurement. Animals were sacrificed, and their serum and tumors were collected for analysis. Organs were harvested, and ex vivo imaging was performed to evaluate metastasis. All in vivo and ex vivo imaging was performed as previously described. All animal experiments were performed following the protocols evaluated and approved by the Boise State University Institutional Animal Care and Use Committee (IACUC) (Ethics Approval Number: AC23-043).

[4] = T47D, SMI 10 μM + OSM 10 ng/mL, 30 min, ELISA, relative to +OSM, no-treatment blank subtracted

Structure (SMILES) | Relative pSTAT3 Levels (Table 1, SMI-10A-10J) [1, 4] [%] | Relative pSTAT3 Levels (Table 2, SMI-10B analogs) [1, 4] [%] | Inhibition of OSM-induced pSTAT3 via ELISA ([1]; T47D, SMI 10 μM, OSM 10 ng/mL, 30 min) | IC50 ([1]; Figure S3 graph A (T47D by order), four parameter nonlinear regression, given as negative log value, read-out: LogIC50 (graph A) (converted)) [nM] | IC50 ([1]; T47D cells, ELISA, read-out: IC50 for inhibition of STAT3 phosphorylation) [nM] | Relative pSTAT3 Levels (Table 2, SMI-10B analogs) ([1]; T47D, SMI 10 μM + OSM 10 ng/mL, 30 min, ELISA, relative to +OSM, no-treatment blank subtracted, listed as 10B13) [%] | IC50 ([2]; Figure S3 graph B (MCF-7 by order), four parameter nonlinear regression, given as negative log value, read-out: LogIC50 (graph B) (converted)) [nM] | IC50 ([2]; MCF-7 cells, ELISA, read-out: IC50 for inhibition of STAT3 phosphorylation) [nM] | Tumor size diameter (mm) at end point vs vehicle control ([3]; 50 mg/kg i.p. 3x weekly, 40 days, caliper) | Bioluminescent tumor detection vs vehicle control ([3]; 50 mg/kg i.p. 3x weekly, 40 days, weekly imaging) | Signs of drug-related toxicity in mice ([3]; mouse, in vivo)
O=C(O)/C=C/c1cc(-c2ccc3c(c2)OCO3)c(-c2ccc3c(c2)OCO3)o1 [SMI-10B, (E)-3-(4,5-Bis(benzo[d][1,3]dioxol-5-yl)furan-2-yl)acrylic acid] | 12.8 | 30.14 | capable of inhibiting OSM-induced pSTAT3 | – | – | – | – | – | – | – | –
O=C(O)/C=C/c1cc(-c2ccc3cc[nH]c3c2)c(-c2ccc3cc[nH]c3c2)o1 [SMI-10B13, (E)-3-(4,5-di(1H-Indol-6-yl)furan-2-yl)acrylic Acid] | – | 32.7 | – | 136 | 136 | 32.73 | 164 | 164 | significant reduction in tumor mm size | significant reduction in bioluminescent detection | none of the mice injected with SMI exhibited any signs of drug-related toxicity

Reference: PMC12362618, “Development of the First Small-Molecule Inhibitor Targeting Oncostatin M for Treatment of Breast Cancer” (Journal of Medicinal Chemistry, 2025)
